Results as given in patent US20230002367A1, “BIFUNCTIONAL COMPOUNDS” (Hoffmann-La Roche Inc., priority 2019, published 2023).

Target: T1, SMARCA2 (Homo sapiens, UniProt P51531)
T1 construct: endogenous in cells
Experiment: SMARCA2 HiBiT degradation assay (cellular)
Format: cell-based
Settings: for Emax: A549, Emax = amount of residual protein remaining in the cell following compound treatment; for DC50: SMARCA2 HiBiT cells, luminescence readout, 11-point titration from 10 μM, 6 hours or 16 hours, read-out: HiBit A549 SMARCA2 IP

T1 sequence (P51531 whole entry): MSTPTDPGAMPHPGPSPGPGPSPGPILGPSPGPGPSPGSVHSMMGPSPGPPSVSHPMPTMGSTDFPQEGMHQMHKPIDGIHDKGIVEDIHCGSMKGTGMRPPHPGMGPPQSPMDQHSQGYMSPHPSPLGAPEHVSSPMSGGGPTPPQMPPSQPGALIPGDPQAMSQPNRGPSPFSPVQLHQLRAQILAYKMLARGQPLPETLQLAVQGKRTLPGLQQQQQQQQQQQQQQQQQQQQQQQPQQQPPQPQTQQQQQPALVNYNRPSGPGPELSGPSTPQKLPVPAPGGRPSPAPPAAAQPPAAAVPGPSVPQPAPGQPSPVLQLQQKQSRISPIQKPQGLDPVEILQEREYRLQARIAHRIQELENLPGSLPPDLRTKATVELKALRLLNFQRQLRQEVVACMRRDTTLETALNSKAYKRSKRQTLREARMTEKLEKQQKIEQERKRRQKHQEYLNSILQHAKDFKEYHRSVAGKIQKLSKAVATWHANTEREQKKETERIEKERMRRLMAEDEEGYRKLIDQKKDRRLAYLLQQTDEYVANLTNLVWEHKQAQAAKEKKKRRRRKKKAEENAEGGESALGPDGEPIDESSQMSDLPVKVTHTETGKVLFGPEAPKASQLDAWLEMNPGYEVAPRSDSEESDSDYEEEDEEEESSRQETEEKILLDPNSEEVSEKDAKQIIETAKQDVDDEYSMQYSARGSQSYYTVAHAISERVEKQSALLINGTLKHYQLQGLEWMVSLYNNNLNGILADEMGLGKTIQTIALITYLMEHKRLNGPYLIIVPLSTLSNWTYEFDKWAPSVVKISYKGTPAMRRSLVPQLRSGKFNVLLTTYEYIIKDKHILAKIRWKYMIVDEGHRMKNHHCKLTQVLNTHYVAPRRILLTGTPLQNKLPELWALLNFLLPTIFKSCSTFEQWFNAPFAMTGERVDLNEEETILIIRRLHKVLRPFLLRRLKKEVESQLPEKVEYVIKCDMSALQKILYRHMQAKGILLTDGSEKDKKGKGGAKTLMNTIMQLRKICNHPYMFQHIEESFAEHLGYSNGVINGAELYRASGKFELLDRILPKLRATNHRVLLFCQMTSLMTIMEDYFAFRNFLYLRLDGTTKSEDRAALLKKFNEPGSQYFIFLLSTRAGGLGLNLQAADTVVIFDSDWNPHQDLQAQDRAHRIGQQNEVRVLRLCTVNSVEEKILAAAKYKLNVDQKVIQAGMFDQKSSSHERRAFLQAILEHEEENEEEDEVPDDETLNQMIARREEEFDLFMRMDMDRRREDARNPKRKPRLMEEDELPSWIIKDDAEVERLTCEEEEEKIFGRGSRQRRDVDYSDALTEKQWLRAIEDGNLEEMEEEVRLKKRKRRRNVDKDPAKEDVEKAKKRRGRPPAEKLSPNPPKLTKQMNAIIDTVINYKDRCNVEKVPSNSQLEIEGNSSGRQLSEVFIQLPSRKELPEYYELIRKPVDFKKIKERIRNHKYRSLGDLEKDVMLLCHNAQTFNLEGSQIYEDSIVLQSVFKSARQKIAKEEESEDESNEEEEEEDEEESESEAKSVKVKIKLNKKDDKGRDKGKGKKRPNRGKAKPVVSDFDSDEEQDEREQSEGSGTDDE

SMILES	Emax [%]	DC50 [µM]	HiBit A549 SMARCA2 Emax (%) (Emax = amount of residual protein remaining in the cell following compound treatment)
Cc1ncsc1-c1ccc([C@H](C)NC(=O)[C@@H]2C[C@@H](O)CN2C(=O)[C@@H](NC(=O)CCCCCCCCC(=O)N2CCN(c3ccc(CN4CCCC(Oc5cc(-c6ccccc6O)nnc5N)C4)cc3)CC2)C(C)(C)C)cc1 (mixture of isomers) [Example 41, rac-(2S,4R)-4-hydroxy-1-[rac-(2S)-2-[[10-[4-[4-[[3-[3-amino-6-(2-hydroxyphenyl)pyridazin-4-yl]oxy-1-piperidyl]methyl]phenyl]piperazin-1-yl]-10-oxo-decanoyl]amino]-3,3-dimethyl-butanoyl]-N-[rac-(1S)-1-[4-(4-methylthiazol-5-yl)phenyl]ethyl]pyrrolidine-2-carboxamide]	63	0.204	–
Cc1ncsc1-c1ccc([C@H](C)NC(=O)[C@@H]2C[C@@H](O)CN2C(=O)[C@@H](NC(=O)CCOCCOCCOCCC(=O)N2CCN(c3ccc(N4CCCC(Oc5cc(-c6ccccc6O)nnc5N)C4)cc3)CC2)C(C)(C)C)cc1 (mixture of isomers) [Example 46, rac-(2S,4R)-4-hydroxy-1-[rac-(2S)-2-[3-[2-[2-[3-[4-[4-[3-[3-amino-6-(2-hydroxyphenyl)pyridazin-4-yl]oxy-1-piperidyl]phenyl]piperazin-1-yl]-3-oxo-propoxy]ethoxy]ethoxy]propanoylamino]-3,3-dimethyl-butanoyl]-N-[rac-(1S)-1-[4-(4-methylthiazol-5-yl)phenyl]ethyl]pyrrolidine-2-carboxamide]	51	2.61	–
Cc1ncsc1-c1ccc([C@H](C)NC(=O)[C@@H]2C[C@@H](O)CN2C(=O)[C@@H](NC(=O)CCC(=O)N2CCN(c3ccc(N4CCCC(Oc5cc(-c6ccccc6O)nnc5N)C4)cc3)CC2)C(C)(C)C)cc1 (mixture of isomers) [Example 47, rac-(2S,4R)-4-hydroxy-1-[rac-(2S)-2-[[4-[4-[4-[3-[3-amino-6-(2-hydroxyphenyl)pyridazin-4-yl]oxy-1-piperidyl]phenyl]piperazin-1-yl]-4-oxo-butanoyl]amino]-3,3-dimethyl-butanoyl]-N-[rac-(1S)-1-[4-(4-methylthiazol-5-yl)phenyl]ethyl]pyrrolidine-2-carboxamide]	55	0.733	–
Cc1ncsc1-c1ccc([C@H](C)NC(=O)[C@@H]2C[C@@H](O)CN2C(=O)[C@@H](NC(=O)CCCCCCCCCCC(=O)N2CCN(c3ccc(N4CCCC(Oc5cc(-c6ccccc6O)nnc5N)C4)cc3)CC2)C(C)(C)C)cc1 (mixture of isomers) [Example 48, rac-(2S,4R)-4-hydroxy-1-[rac-(2S)-2-[[12-[4-[4-[3-[3-amino-6-(2-hydroxyphenyl)pyridazin-4-yl]oxy-1-piperidyl]phenyl]piperazin-1-yl]-12-oxo-dodecanoyl]amino]-3,3-dimethyl-butanoyl]-N-[rac-(1S)-1-[4-(4-methylthiazol-5-yl)phenyl]ethyl]pyrrolidine-2-carboxamide]	22	0.135	–
Cc1ncsc1-c1ccc([C@H](C)NC(=O)[C@@H]2C[C@@H](O)CN2C(=O)[C@@H](NC(=O)CCOCCC(=O)N(C)CC(COc2cc(-c3ccccc3O)nnc2N)c2ccccc2)C(C)(C)C)cc1 (mixture of isomers) [Example 49, rac-(2S,4R)-4-hydroxy-1-[rac-(2S)-2-[3-[3-[[3-[3-amino-6-(2-hydroxyphenyl)pyridazin-4-yl]oxy-2-phenyl-propyl]-methyl-amino]-3-oxo-propoxy]propanoylamino]-3,3-dimethyl-butanoyl]-N-[rac-(1S)-1-[4-(4-methylthiazol-5-yl)phenyl]ethyl]pyrrolidine-2-carboxamide]	60	1.66	–
Cc1ncsc1-c1ccc(CNC(=O)[C@@H]2C[C@@H](O)CN2C(=O)[C@@H](NC(=O)CCCCCCCCC(=O)NCC(COc2cc(-c3ccccc3O)nnc2N)c2ccccc2)C(C)(C)C)cc1 (mixture of isomers) [Example 51, N-[3-[3-amino-6-(2-hydroxyphenyl)pyridazin-4-yl]oxy-2-phenyl-propyl]-N′-[rac-(1S)-2,2-dimethyl-1-[rac-(2S,4R)-4-hydroxy-2-[[4-(4-methylthiazol-5-yl)phenyl]methylcarbamoyl]pyrrolidine-1-carbonyl]propyl]decanediamide]	48	1.65	–
Cc1ncsc1-c1ccc(CNC(=O)[C@@H]2C[C@@H](O)CN2C(=O)[C@@H](NC(=O)CCCCCC(=O)NC(COc2cc(-c3ccccc3O)nnc2N)c2ccccc2)C(C)(C)C)cc1 (mixture of isomers) [Example 62, N-[2-[3-amino-6-(2-hydroxyphenyl)pyridazin-4-yl]oxy-1-phenyl-ethyl]-N′-[rac-(1S)-2,2-dimethyl-1-[rac-(2S,4R)-4-hydroxy-2-[[4-(4-methylthiazol-5-yl)phenyl]methylcarbamoyl]pyrrolidine-1-carbonyl]propyl]heptanediamide]	54	2.61	–

Second part, the compound after the results:

Emax [%]	DC50 [µM]	HiBit A549 SMARCA2 Emax (%) (Emax = amount of residual protein remaining in the cell following compound treatment)	SMILES
48	0.798	–	Cc1ncsc1-c1ccc(CNC(=O)[C@@H]2C[C@@H](O)CN2C(=O)[C@@H](NC(=O)CCCCCCCCC(=O)NC(COc2cc(-c3ccccc3O)nnc2N)c2ccccc2)C(C)(C)C)cc1 (mixture of isomers) [Example 63, N-[2-[3-amino-6-(2-hydroxyphenyl)pyridazin-4-yl]oxy-1-phenyl-ethyl]-N′-[rac-(1S)-2,2-dimethyl-1-[rac-(2S,4R)-4-hydroxy-2-[[4-(4-methylthiazol-5-yl)phenyl]methylcarbamoyl]pyrrolidine-1-carbonyl]propyl]decanediamide]
24	1.03	–	Cc1ncsc1-c1ccc(CNC(=O)[C@@H]2C[C@@H](O)CN2C(=O)[C@@H](NC(=O)CCCCCCCCC(=O)N2CC(Oc3cc(-c4ccccc4O)nnc3N)CC(c3ccccc3)C2)C(C)(C)C)cc1 (mixture of isomers) [Example 65, rac-(2S,4R)-4-hydroxy-N-[[4-(4-methylthiazol-5-yl)phenyl]methyl]-1-[rac-(2S)-2-[[10-[3-[3-amino-6-(2-hydroxyphenyl)pyridazin-4-yl]oxy-5-phenyl-1-piperidyl]-10-oxo-decanoyl]amino]-3,3-dimethyl-butanoyl]pyrrolidine-2-carboxamide]
49	2.02	–	Cc1ncsc1-c1ccc(CNC(=O)[C@@H]2C[C@@H](O)CN2C(=O)[C@@H](NC(=O)CCCCCC(=O)N2CC(Oc3cc(-c4ccccc4O)nnc3N)CC(c3ccccc3)C2)C(C)(C)C)cc1 (mixture of isomers) [Example 66, Trans rac-(2S,4R)-4-hydroxy-N-[[4-(4-methylthiazol-5-yl)phenyl]methyl]-1-[rac-(2S)-2-[[7-[3-[3-amino-6-(2-hydroxyphenyl)pyridazin-4-yl]oxy-5-phenyl-1-piperidyl]-7-oxo-heptanoyl]amino]-3,3-dimethyl-butanoyl]pyrrolidine-2-carboxamide]
–	0.839	29	Cc1ncsc1-c1ccc(CNC(=O)[C@@H]2C[C@@H](O)CN2C(=O)[C@@H](NC(=O)CCCCCCCCC(=O)N2CC(Oc3cc(-c4ccccc4O)nnc3N)CC(c3ccccc3)C2)C(C)(C)C)cc1 (mixture of isomers) [Example 67, Trans rac-(2S,4R)-4-hydroxy-N-[[4-(4-methylthiazol-5-yl)phenyl]methyl]-1-[rac-(2S)-2-[[10-[3-[3-amino-6-(2-hydroxyphenyl)pyridazin-4-yl]oxy-5-phenyl-1-piperidyl]-10-oxo-decanoyl]amino]-3,3-dimethyl-butanoyl]pyrrolidine-2-carboxamide]
60	2.11	–	Cc1ncsc1-c1ccc([C@H](C)NC(=O)[C@@H]2C[C@@H](O)CN2C(=O)[C@@H](NC(=O)CCC(=O)N2CCN(CCOc3cccc(N4CCCC(Oc5cc(-c6ccccc6O)nnc5N)C4)c3)CC2)C(C)(C)C)cc1 (mixture of isomers) [Example 69, rac-(2S,4R)-4-hydroxy-1-[rac-(2S)-2-[[4-[4-[2-[3-[3-[3-amino-6-(2-hydroxyphenyl)pyridazin-4-yl]oxy-1-piperidyl]phenoxy]ethyl]piperazin-1-yl]-4-oxo-butanoyl]amino]-3,3-dimethyl-butanoyl]-N-[rac-(1S)-1-[4-(4-methylthiazol-5-yl)phenyl]ethyl]pyrrolidine-2-carboxamide]
50	1.18	–	Cc1ncsc1-c1ccc([C@H](C)NC(=O)[C@@H]2C[C@@H](O)CN2C(=O)[C@@H](NC(=O)CCCCCC(=O)N2CCN(CCOc3cccc(N4CCCC(Oc5cc(-c6ccccc6O)nnc5N)C4)c3)CC2)C(C)(C)C)cc1 (mixture of isomers) [Example 70, rac-(2S,4R)-4-hydroxy-1-[rac-(2S)-2-[[7-[4-[2-[3-[3-[3-amino-6-(2-hydroxyphenyl)pyridazin-4-yl]oxy-1-piperidyl]phenoxy]ethyl]piperazin-1-yl]-7-oxo-heptanoyl]amino]-3,3-dimethyl-butanoyl]-N-[rac-(1S)-1-[4-(4-methylthiazol-5-yl)phenyl]ethyl]pyrrolidine-2-carboxamide]
38	0.522	–	Cc1ncsc1-c1ccc([C@H](C)NC(=O)[C@@H]2C[C@@H](O)CN2C(=O)[C@@H](NC(=O)CCCCCCCCC(=O)N2CCN(CCOc3cccc(N4CCCC(Oc5cc(-c6ccccc6O)nnc5N)C4)c3)CC2)C(C)(C)C)cc1 (mixture of isomers) [Example 71, rac-(2S,4R)-4-hydroxy-1-[rac-(2S)-2-[[10-[4-[2-[3-[3-[3-amino-6-(2-hydroxyphenyl)pyridazin-4-yl]oxy-1-piperidyl]phenoxy]ethyl]piperazin-1-yl]-10-oxo-decanoyl]amino]-3,3-dimethyl-butanoyl]-N-[rac-(1S)-1-[4-(4-methylthiazol-5-yl)phenyl]ethyl]pyrrolidine-2-carboxamide]
35	0.421	–	Cc1ncsc1-c1ccc([C@H](C)NC(=O)[C@@H]2C[C@@H](O)CN2C(=O)[C@@H](NC(=O)CCCCCCCCCCC(=O)N2CCN(CCOc3cccc(N4CCCC(Oc5cc(-c6ccccc6O)nnc5N)C4)c3)CC2)C(C)(C)C)cc1 (mixture of isomers) [Example 72, rac-(2S,4R)-4-hydroxy-1-[rac-(2S)-2-[[12-[4-[2-[3-[3-[3-amino-6-(2-hydroxyphenyl)pyridazin-4-yl]oxy-1-piperidyl]phenoxy]ethyl]piperazin-1-yl]-12-oxo-dodecanoyl]amino]-3,3-dimethyl-butanoyl]-N-[rac-(1S)-1-[4-(4-methylthiazol-5-yl)phenyl]ethyl]pyrrolidine-2-carboxamide]
